The target in series [1] is 3',5'-cyclic-AMP phosphodiesterase 4D (Homo sapiens, UniProt Q08499).
Description: Inhibition of human recombinant PDE4D2 activity assessed as residual cAMP concentration by HTRF assay
The nature of series [2]: Half life in human lung S9 fraction after 60 mins by […] analysis. The class given is ADME, tissue-based.
Series [3] addresses 3',5'-cyclic-AMP phosphodiesterase 4B (Homo sapiens, UniProt Q07343). Kind of series: Inhibition of human recombinant PDE4B1 activity assessed as residual cAMP concentration by HTRF assay. A general note: TR-FRET usually uses a lanthanide donor and a delayed reading to cut background.
Series [4] in a line: Half life in human plasma after 60 mins by […] analysis. The class given is ADME, cell-free.
Series [5] can be described thus: Apparent permeability of the compound at pH 7.4 buffer by PAMPA. The class given is physicochemical. On the technique in general: The PAMPA barrier holds no transporters, so it reflects passive diffusion.
Series [6] can be described thus: Half life in human lung homogenate after 60 mins by […] analysis. The class given is ADME, tissue-based.

Sequence of 3',5'-cyclic-AMP phosphodiesterase 4D (Q08499 whole entry): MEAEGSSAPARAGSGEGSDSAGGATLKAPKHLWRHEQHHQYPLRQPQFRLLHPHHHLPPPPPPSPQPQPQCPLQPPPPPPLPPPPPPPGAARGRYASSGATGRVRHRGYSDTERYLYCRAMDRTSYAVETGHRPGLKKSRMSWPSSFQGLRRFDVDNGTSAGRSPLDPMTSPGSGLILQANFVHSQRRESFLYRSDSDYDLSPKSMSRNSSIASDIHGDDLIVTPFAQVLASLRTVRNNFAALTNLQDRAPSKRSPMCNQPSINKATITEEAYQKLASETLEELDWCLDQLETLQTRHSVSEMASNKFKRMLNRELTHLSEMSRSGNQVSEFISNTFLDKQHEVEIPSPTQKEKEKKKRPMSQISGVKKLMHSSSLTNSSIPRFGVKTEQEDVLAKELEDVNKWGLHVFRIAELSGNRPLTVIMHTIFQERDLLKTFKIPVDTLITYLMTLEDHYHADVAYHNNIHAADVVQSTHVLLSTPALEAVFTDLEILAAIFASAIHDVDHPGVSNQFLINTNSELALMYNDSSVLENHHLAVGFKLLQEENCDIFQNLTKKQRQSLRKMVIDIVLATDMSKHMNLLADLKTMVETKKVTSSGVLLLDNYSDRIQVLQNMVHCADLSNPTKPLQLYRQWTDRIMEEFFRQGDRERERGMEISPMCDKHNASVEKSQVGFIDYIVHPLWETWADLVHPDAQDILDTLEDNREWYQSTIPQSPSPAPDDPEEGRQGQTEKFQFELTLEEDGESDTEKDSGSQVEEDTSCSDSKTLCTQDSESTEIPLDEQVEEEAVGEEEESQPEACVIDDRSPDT
Sequence of 3',5'-cyclic-AMP phosphodiesterase 4B (Q07343 whole entry): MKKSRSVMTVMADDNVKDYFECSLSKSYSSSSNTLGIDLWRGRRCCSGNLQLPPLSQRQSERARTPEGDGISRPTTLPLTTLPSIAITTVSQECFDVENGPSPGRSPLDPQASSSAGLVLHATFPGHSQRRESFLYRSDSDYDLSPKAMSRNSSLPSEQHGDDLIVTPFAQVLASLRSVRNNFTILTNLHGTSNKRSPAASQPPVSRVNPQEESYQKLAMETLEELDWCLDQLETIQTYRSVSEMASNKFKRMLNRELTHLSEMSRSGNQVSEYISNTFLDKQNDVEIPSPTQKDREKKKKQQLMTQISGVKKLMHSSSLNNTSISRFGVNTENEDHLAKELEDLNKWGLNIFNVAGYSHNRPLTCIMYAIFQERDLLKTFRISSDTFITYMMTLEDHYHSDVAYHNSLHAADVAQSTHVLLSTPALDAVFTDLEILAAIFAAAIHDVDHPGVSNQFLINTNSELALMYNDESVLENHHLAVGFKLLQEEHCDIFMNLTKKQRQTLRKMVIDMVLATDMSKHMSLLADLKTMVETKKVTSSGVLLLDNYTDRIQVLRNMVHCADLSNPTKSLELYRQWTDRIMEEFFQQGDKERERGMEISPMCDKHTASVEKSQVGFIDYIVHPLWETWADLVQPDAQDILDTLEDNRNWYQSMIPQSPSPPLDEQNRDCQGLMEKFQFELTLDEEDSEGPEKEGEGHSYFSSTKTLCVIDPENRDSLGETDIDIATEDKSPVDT

Consider `O=C(Nc1c(Cl)cncc1Cl)c1ccc(OC(F)F)c(OCCCCSC2CCOC2=O)c1` (configuration not stated), for which the IC50 (as a rule, the concentration at which inhibition is half-maximal) in series [1] came out at 1.8 nM; in series [3], 4.7 nM. For the same compound, the half-life – broadly, the time needed for the level to fall by half in the phase considered – in series [2] was greater than 60 min; in series [4] it was less than 5 min.
`O=C(Nc1c(Cl)c[n+]([O-])cc1Cl)c1ccc(OC(F)F)c(OCCCNC2CCOC2=O)c1` (configuration not stated): the IC50 in series [1] was found to be 170 nM; in series [3], 88 nM. In series [4], this compound registered a half-life of 8 min.
As for `O=C(Nc1c(Cl)cncc1Cl)c1ccc(OC(F)F)c(OCCCCNC(CCO)C(=O)O)c1` (configuration not stated), the IC50 was found to be 150 nM in series [1] and 180 nM in series [3]. Moreover, the apparent permeability (Papp) (in general, a coefficient for how fast a substance crosses the barrier) in series [5] was found to be 0.03 ×10⁻⁶ cm/s.
As to `CNC(=C[N+](=O)[O-])NCCSCc1ccc(CN(C)C)o1` [RANITIDINE], the Papp in series [5] was found to be 0.14 ×10⁻⁶ cm/s.
As to `O=C(Nc1c(Cl)cncc1Cl)c1ccc(OC(F)F)c(OCCCCNC2CCOC2=O)c1` (configuration not stated), the IC50 came out at 6.6 nM in series [1] and 4 nM in series [3]. In addition, the half-life was greater than 60 min in series [2], greater than 60 min in series [6] and less than 5 min in series [4]. Also, the Papp in series [5] worked out at 4.7 ×10⁻⁶ cm/s.
On to `O=C(O)CNCCCOc1cc(C(=O)Nc2c(Cl)cncc2Cl)ccc1OC(F)F`, for which the results for the IC50 in series [1] and in series [3] were 1500 nM and 910 nM, respectively. Also, the Papp in series [5] is less than 0.01 ×10⁻⁶ cm/s.
As to `O=C(Nc1c(Cl)cncc1Cl)c1ccc(OC(F)F)c(OCCCNC(CCO)C(=O)O)c1` (configuration not stated), the IC50 in series [1] turned out to be 2300 nM; in series [3], 740 nM. Besides, the Papp in series [5] came out at 0.02 ×10⁻⁶ cm/s.
`O=C(Nc1c(Cl)cncc1Cl)c1ccc(OC(F)F)c(OCCCCSC(CCO)C(=O)O)c1` (configuration not stated): the IC50 was determined as 4.5 nM in series [1] and 8.8 nM in series [3]. In addition, the Papp in series [5] came out at 0.05 ×10⁻⁶ cm/s.
With `O=C(Nc1c(Cl)cncc1Cl)c1ccc(OC(F)F)c(OCCCSC(CCO)C(=O)O)c1` (configuration not stated), the IC50 was found to be 9.9 nM in series [1] and 5.5 nM in series [3]. For the same compound, the Papp in series [5] is 0.14 ×10⁻⁶ cm/s.
Consider `O=C(Nc1c(Cl)cncc1Cl)c1ccc(OC(F)F)c(OCCCNC2CCOC2=O)c1` (configuration not stated), for which the IC50 was 18 nM in series [1] and 5.4 nM in series [3]. Moreover, the half-life in series [2] is greater than 60 min; in series [6] it was greater than 60 min; in series [4] it was less than 5 min.
As to `O=C(Nc1c(Cl)cncc1Cl)c1ccc(OC(F)F)c(OCCCN[C@H](CCO)C(=O)O)c1`, the IC50 in series [1] came to 7200 nM; in series [3], 1700 nM.
As to `O=C(Nc1c(Cl)cncc1Cl)c1ccc(OC(F)F)c(OCCCN[C@@H]2CCOC2=O)c1`, the IC50 in series [1] is 7.3 nM; in series [3], 12 nM.
Take `O=C(Nc1c(Cl)cncc1Cl)c1ccc(OC(F)F)c(OCCCSC2CCOC2=O)c1` (configuration not stated): the IC50 in series [1] was found to be 5.5 nM; in series [3], 1.8 nM. Also, the values for the half-life in series [2], in series [6] and in series [4] were greater than 60 min, 39 min and less than 5 min, respectively.
For `COC(=O)CNCCCOc1cc(C(=O)Nc2c(Cl)cncc2Cl)ccc1OC(F)F`, the IC50 came to 32 nM in series [1] and 21 nM in series [3]. Moreover, in series [5], the Papp stood at 8.9 ×10⁻⁶ cm/s. In series [4], this compound gave a half-life of 19 min.
With `O=C(Nc1c(Cl)cncc1Cl)c1ccc(OC(F)F)c(OCCCN[C@@H](CCO)C(=O)O)c1`, the IC50 in series [1] was greater than 10000 nM; in series [3], 2700 nM.
Consider `CC(C)NCC(O)COc1cccc2ccccc12` (configuration not stated) [PROPRANOLOL], for which, in series [5], the Papp is 10 ×10⁻⁶ cm/s.
With `O=C(Nc1c(Cl)cncc1Cl)c1ccc(OC(F)F)c(OCCCN[C@H]2CCOC2=O)c1`, the IC50 was 48 nM in series [1] and 11 nM in series [3].

(Values after ChEMBL document CHEMBL3351837 (Bioorg Med Chem Lett, 2014).)
